# Experimental data published in patent US10604524B2, “Pyrropyrimidine compounds as MNKs inhibitors” (LIFEARC, priority 2015, dated 2020).
# How the values were obtained:
# Assay in all cases: Kinase selectivity screen
# MKNK2 = MKNK2 (Homo sapiens, UniProt Q9HBH9); type: biochemical; conditions: 1 μM compound
# IRAK4 = IRAK4 (Homo sapiens, UniProt Q9NWZ3); conditions: read-out: % Inhibition IRAK4
# PTK2 = PTK2 (Homo sapiens, UniProt Q05397); conditions: read-out: % Inhibition PTK2
# RPS6KA1 = RPS6KA1 (Homo sapiens, UniProt Q15418); conditions: read-out: % Inhibition RPS6KA1
# CSNK1G1 = CSNK1G1 (Homo sapiens, UniProt Q9HCP0); conditions: read-out: % Inhibition CSNK1G1
# EEF2K = EEF2K (Homo sapiens, UniProt O00418); conditions: read-out: % Inhibition EEF2K
# PIK3CD = PIK3CD (Homo sapiens, UniProt O00329); conditions: read-out: % Inhibition PIK3CD
# TBK1 = TBK1 (Homo sapiens, UniProt Q9UHD2); conditions: read-out: % Inhibition TBK1
# FES = FES (Homo sapiens, UniProt P07332); conditions: read-out: % Inhibition FES
# EPHB4 = EPHB4 (Homo sapiens, UniProt P54760); conditions: read-out: % Inhibition EPHB4
# MYLK = MYLK (Homo sapiens, UniProt Q15746); conditions: read-out: % Inhibition MYLK
# YES1 = YES1 (Homo sapiens, UniProt P07947); conditions: read-out: % Inhibition YES1
# INSRR = INSRR (Homo sapiens, UniProt P14616); conditions: read-out: % Inhibition INSRR
# FYN = FYN (Homo sapiens, UniProt P06241); conditions: read-out: % Inhibition FYN
# MTOR = MTOR (Homo sapiens, UniProt P42345); conditions: read-out: % Inhibition MTOR
# NTRK1 = NTRK1 (Homo sapiens, UniProt P04629); conditions: read-out: % Inhibition NTRK1
# CDK9/CCNT1 = CDK9/CCNT1 (Homo sapiens, UniProt P50750); conditions: read-out: % Inhibition CDK9/CCNT1
# CaMK1 = CaMK1 (Homo sapiens, UniProt Q14012); conditions: read-out: % Inhibition CaMK1
# ERBB4 = ERBB4 (Homo sapiens, UniProt Q15303); conditions: read-out: % Inhibition ERBB4
# CDK7/CCNH/MNAT1 = CDK7/CCNH/MNAT1 (Homo sapiens, UniProt P50613); conditions: read-out: % Inhibition CDK7/CCNH/MNAT1
# IGF1R = IGF1R (Homo sapiens, UniProt P08069); conditions: read-out: % Inhibition IGF1R
# FGFR4 = FGFR4 (Homo sapiens, UniProt P22455); conditions: read-out: % Inhibition FGFR4
# PIP5K1A = PIP5K1A (Homo sapiens, UniProt Q99755); conditions: read-out: % Inhibition PIP5K1A
# PLK1 = PLK1 (Homo sapiens, UniProt P53350); conditions: read-out: % Inhibition PLK1
# GSK3A = GSK3A (Homo sapiens, UniProt P49840); conditions: read-out: % Inhibition GSK3A
# ALK = ALK (Homo sapiens, UniProt Q9UM73); conditions: read-out: % Inhibition ALK
# PIP4K2A = PIP4K2A (Homo sapiens, UniProt P48426); conditions: read-out: % Inhibition PIP4K2A
# BLK = BLK (Homo sapiens, UniProt P51451); conditions: read-out: % Inhibition BLK
# ABL1 = ABL1 (Homo sapiens, UniProt P00519); conditions: read-out: % Inhibition ABL1
# BMX = BMX (Homo sapiens, UniProt P51813); conditions: read-out: % Inhibition BMX
# CDK1/CCNB1 = CDK1/CCNB1 (Homo sapiens, UniProt P06493); conditions: read-out: % Inhibition CDK1/CCNB1
# FLT3 = FLT3 (Homo sapiens, UniProt P36888); conditions: read-out: % Inhibition FLT3
# TGFBR1 = TGFBR1 (Homo sapiens, UniProt P36897); conditions: read-out: % Inhibition TGFBR1
# CSNK2A2 = CSNK2A2 (Homo sapiens, UniProt P19784); conditions: read-out: % Inhibition CSNK2A2
# BLK, sequence (P51451 whole entry, species assumed): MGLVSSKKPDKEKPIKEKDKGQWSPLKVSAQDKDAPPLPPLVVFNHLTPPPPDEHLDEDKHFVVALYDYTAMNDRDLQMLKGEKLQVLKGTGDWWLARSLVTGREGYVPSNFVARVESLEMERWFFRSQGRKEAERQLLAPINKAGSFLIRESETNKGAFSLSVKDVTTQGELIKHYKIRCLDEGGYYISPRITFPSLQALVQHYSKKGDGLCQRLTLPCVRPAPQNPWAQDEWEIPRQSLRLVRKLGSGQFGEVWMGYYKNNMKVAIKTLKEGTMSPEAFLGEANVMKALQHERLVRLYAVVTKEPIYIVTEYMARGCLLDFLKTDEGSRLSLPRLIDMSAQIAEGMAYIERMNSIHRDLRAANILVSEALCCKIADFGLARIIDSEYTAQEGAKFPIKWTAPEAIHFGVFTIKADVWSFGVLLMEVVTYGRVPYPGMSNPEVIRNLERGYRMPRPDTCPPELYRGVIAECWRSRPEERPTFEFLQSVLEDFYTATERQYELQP
# CDK9/CCNT1, sequence (P50750 whole entry, species assumed): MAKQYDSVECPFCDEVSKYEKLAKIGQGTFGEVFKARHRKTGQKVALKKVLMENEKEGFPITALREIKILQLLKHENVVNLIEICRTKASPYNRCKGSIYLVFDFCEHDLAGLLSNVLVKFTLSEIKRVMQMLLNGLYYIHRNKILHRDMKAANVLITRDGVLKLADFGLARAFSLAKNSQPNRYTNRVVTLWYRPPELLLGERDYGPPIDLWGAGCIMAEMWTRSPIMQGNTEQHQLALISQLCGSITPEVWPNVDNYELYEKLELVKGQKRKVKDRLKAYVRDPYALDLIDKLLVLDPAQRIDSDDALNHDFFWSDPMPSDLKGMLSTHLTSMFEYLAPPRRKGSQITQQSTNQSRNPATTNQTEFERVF
# CDK9/CCNT1, sequence (O60563 whole entry partner, species assumed): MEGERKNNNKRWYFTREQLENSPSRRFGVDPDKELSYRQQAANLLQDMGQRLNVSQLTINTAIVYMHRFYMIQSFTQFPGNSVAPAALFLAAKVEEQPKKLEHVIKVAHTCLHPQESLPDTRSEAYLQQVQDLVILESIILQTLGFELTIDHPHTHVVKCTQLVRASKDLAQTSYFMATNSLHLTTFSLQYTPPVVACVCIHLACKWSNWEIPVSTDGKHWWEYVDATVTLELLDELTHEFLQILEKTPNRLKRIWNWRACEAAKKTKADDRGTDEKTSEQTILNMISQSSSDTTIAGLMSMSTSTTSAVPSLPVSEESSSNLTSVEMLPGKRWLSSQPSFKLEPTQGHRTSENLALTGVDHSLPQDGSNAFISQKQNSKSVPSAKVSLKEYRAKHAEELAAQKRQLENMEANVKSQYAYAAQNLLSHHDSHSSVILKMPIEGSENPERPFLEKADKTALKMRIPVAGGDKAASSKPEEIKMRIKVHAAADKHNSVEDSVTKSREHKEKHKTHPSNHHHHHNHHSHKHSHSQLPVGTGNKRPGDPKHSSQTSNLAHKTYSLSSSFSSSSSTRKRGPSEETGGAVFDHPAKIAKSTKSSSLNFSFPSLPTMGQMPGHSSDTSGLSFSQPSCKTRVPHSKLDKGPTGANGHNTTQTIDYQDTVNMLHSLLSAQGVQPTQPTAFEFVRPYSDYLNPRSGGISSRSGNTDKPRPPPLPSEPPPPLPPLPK
# PTK2, sequence (Q05397 whole entry, species assumed): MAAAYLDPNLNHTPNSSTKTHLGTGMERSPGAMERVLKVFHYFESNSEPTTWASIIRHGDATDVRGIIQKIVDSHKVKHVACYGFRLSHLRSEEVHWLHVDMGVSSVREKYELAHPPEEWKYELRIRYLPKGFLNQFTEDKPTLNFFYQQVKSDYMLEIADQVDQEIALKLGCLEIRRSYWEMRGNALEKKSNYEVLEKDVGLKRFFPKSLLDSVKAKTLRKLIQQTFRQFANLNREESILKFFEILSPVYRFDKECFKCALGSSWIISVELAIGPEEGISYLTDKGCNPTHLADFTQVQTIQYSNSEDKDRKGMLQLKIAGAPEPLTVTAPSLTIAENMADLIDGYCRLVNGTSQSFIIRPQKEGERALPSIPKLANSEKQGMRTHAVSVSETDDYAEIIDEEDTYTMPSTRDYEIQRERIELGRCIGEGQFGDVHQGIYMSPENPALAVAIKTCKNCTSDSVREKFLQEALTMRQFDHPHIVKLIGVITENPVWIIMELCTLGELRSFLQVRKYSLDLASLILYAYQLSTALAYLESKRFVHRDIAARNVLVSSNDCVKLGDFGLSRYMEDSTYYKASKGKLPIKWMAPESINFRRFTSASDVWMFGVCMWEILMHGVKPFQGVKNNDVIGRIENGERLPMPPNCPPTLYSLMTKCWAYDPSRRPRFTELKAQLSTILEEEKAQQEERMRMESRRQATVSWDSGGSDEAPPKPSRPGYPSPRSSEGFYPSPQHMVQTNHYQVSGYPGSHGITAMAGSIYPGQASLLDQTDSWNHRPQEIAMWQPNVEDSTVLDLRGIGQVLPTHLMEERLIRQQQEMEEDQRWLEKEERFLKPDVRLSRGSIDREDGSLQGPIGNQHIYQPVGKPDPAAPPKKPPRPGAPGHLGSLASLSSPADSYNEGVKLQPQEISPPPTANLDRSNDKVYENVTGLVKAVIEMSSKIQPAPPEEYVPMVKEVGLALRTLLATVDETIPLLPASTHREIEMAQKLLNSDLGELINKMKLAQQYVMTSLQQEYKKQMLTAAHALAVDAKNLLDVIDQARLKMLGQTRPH
# CDK7/CCNH/MNAT1, sequence (P50613 whole entry, species assumed): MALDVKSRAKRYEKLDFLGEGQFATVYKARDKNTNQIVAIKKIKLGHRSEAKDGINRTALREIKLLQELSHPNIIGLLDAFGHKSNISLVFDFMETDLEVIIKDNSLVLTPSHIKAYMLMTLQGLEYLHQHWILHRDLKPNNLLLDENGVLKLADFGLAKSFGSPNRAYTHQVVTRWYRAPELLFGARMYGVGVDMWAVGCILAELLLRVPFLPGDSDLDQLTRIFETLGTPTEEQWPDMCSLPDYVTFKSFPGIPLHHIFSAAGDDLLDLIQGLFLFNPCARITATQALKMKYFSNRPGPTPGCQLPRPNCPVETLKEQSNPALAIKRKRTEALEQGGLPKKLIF
# CDK7/CCNH/MNAT1, sequence (P51946 whole entry partner, species assumed): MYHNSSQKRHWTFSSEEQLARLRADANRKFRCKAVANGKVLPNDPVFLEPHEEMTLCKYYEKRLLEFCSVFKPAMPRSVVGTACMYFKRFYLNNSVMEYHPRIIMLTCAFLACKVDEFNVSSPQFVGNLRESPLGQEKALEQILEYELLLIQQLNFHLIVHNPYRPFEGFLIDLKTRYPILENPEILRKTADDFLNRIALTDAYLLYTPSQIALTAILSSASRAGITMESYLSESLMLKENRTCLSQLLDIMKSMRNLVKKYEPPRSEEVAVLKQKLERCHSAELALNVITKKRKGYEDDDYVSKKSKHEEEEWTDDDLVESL
# CDK7/CCNH/MNAT1, sequence (P51948 whole entry partner, species assumed): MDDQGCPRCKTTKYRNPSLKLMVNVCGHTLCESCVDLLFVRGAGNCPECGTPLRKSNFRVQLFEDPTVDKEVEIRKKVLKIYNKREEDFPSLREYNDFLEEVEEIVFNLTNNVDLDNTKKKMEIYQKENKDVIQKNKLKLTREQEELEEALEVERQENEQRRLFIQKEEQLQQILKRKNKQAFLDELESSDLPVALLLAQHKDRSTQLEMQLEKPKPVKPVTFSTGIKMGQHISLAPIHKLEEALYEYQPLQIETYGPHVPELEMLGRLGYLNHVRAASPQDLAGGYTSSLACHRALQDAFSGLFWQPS
# GSK3A, sequence (P49840 whole entry, species assumed): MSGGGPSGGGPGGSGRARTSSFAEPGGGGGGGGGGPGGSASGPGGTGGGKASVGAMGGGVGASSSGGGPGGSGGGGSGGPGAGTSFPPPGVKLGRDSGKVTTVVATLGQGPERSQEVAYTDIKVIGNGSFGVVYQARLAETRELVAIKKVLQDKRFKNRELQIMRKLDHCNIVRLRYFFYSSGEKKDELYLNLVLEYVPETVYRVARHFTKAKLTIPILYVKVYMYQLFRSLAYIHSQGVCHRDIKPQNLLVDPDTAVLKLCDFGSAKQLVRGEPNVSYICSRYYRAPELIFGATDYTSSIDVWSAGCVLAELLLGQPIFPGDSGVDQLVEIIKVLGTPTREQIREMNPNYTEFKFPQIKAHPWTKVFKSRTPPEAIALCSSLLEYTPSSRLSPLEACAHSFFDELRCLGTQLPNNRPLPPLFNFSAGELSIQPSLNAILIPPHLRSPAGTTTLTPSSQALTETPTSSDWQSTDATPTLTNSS
# CDK1/CCNB1, sequence (P06493 whole entry, species assumed): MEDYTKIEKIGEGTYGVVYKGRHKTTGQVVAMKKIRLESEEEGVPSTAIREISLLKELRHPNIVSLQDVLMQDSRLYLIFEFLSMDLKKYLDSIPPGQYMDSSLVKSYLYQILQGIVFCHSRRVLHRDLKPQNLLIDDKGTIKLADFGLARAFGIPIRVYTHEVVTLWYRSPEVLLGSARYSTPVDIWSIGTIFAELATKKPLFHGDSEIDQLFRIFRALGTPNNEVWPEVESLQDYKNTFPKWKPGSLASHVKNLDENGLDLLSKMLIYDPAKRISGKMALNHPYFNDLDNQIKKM
# CDK1/CCNB1, sequence (P14635 whole entry partner, species assumed): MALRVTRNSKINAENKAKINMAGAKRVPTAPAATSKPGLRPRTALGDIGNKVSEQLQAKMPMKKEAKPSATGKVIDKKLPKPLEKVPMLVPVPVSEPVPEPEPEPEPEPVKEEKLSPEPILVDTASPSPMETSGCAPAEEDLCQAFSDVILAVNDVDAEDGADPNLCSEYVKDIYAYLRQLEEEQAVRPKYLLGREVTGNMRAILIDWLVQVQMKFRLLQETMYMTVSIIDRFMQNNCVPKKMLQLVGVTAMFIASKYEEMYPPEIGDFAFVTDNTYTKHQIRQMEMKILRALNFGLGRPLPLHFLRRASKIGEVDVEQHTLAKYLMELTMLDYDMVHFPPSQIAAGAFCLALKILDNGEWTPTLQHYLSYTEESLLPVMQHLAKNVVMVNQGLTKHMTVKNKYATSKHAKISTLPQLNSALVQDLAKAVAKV
structure (smiles),measurement,setting,value
"CC(C)Oc1cc(F)ccc1Nc1ncnc2cc(C(=O)NCCCN(C)C)n(C)c12 [Example 40, N-[3-(dimethylamino)propyl]-4-{[4-fluoro-2-(propan-2-yloxy)phenyl]amino}-5-methyl-5H-pyrrolo[3,2-d]pyrimidine-6-carboxamide]",inhibition at 1 µM,MKNK2,84%
same,inhibition at 1 µM,IRAK4,0%
same,inhibition at 1 µM,PTK2,7%
same,inhibition at 1 µM,RPS6KA1,0%
same,inhibition at 1 µM,CSNK1G1,0%
same,inhibition at 1 µM,EEF2K,0%
same,inhibition at 1 µM,PIK3CD,2%
same,inhibition at 1 µM,TBK1,0%
same,inhibition at 1 µM,FES,5%
same,inhibition at 1 µM,EPHB4,2%
same,inhibition at 1 µM,MYLK,0%
same,inhibition at 1 µM,YES1,0%
same,inhibition at 1 µM,INSRR,0%
same,inhibition at 1 µM,FYN,0%
same,inhibition at 1 µM,MTOR,0%
same,inhibition at 1 µM,NTRK1,0%
same,inhibition at 1 µM,CDK9/CCNT1,0%
same,inhibition at 1 µM,CaMK1,0%
same,inhibition at 1 µM,ERBB4,0%
same,inhibition at 1 µM,CDK7/CCNH/MNAT1,5%
same,inhibition at 1 µM,IGF1R,0%
same,inhibition at 1 µM,FGFR4,0%
same,inhibition at 1 µM,PIP5K1A,2%
same,inhibition at 1 µM,PLK1,0%
same,inhibition at 1 µM,GSK3A,0%
same,inhibition at 1 µM,ALK,0%
same,inhibition at 1 µM,PIP4K2A,7%
same,inhibition at 1 µM,BLK,4%
same,inhibition at 1 µM,ABL1,0%
same,inhibition at 1 µM,BMX,0%
same,inhibition at 1 µM,CDK1/CCNB1,0%
same,inhibition at 1 µM,FLT3,24%
same,inhibition at 1 µM,TGFBR1,0%
same,inhibition at 1 µM,CSNK2A2,0%
